Columns and labels:
LH and FSH release [1] = assay: bioassays / biological equivalence to the natural hormone (not specified further)
LH and FSH release [2] = assay: LH- and FSH-releasing activity tested in the radioimmunoassay of Niswender et al.; assay type: in vivo; conditions: acid addition salt
Description: (§1) Exp. Biol. Med., 128, 807 (1968).

ovulation [3] = assay: induction of ovulation in the hamster (Arimura et al., Science 174, 511); assay type: in vivo
Description: as §1

ovulation [4] = assay: modification of the ovulation induction assay in the rat (Arimura et al., Endocrinology 80, 515); assay type: in vivo
Description: as §1

Molecule	pharmacological / biological equivalence (LH and FSH release [1]; compared with the decapeptide or the natural hormone)	LH- and FSH-releasing activity compared with the natural hormone (LH and FSH release [2])	activity in induction of ovulation compared with the natural hormone (ovulation [3]; hamster)	time to ovulation following administration (ovulation [3]; rodents such as rats or hamsters: hamster) [h]	activity in induction of ovulation compared with the natural hormone (ovulation [4]; rat)	time to ovulation following administration (ovulation [4]; rodents such as rats or hamsters: rat) [h]	potency in bioassays compared with the natural product (LH and FSH release [1]; hydrochloride salt)
5-Oxo-L-Prolyl-L-Histidyl-L-Tryptophyl-L-Seryl-L-Tyrosylglycyl-L-Leucyl-L-Arginyl-L-Prolylglycinamide (I) Zinc Complex [Example 19]	pharmacologically equivalent to the decapeptide	–	–	–	–	–	–
CC(C)C[C@H](NC(=O)CNC(=O)[C@H](Cc1ccc(O)cc1)NC(=O)[C@H](CO)NC(=O)[C@H](Cc1c[nH]c2ccccc12)NC(=O)[C@H](Cc1c[nH]cn1)NC(=O)[C@@H]1CCC(=O)N1)C(=O)N[C@@H](CCCNC(=N)N)C(=O)N1CCC[C@H]1C(=O)NCC(N)=O [I, 5-oxo-L-prolyl-L-histidyl-L-tryptophyl-L-seryl-L-tyrosylglycyl-L-leucyl-L-arginyl-L-prolylglycinamide]	–	as active as the natural hormone	equally active	≤ 18	equally active	≤ 18	as potent as the latter
